# Laboratory results reported in the Deep4Chem optical property database.
# Experiment: solvent given as SMILES
structure (smiles),measurement,setting,value
OC1(c2ccc(-c3cccs3)s2)CCCC1,absorption maximum,in C1CCOC1,344 nm
same,absorption maximum,in CC#N,343 nm
same,absorption maximum,in CCCCCC,341 nm
same,absorption maximum,in CCO,342 nm
same,absorption maximum,in OCCOCCO,347 nm
same,absorption maximum,in c1ccncc1,348 nm
CCN(CC)c1ccc(/C=N/c2cc3ccccc3cc2/N=C/c2ccc(N(CC)CC)cc2O)c(O)c1,absorption maximum,in CC#N,403 nm
same,absorption maximum,in CN(C)C=O,416 nm
same,absorption maximum,in ClCCl,447 nm
C[n+]1ccc2c(ccc3c[n+](C)ccc32)c1,absorption maximum,in CC#N,387 nm
c1ccc2c(-c3ccc(-n4c5ccccc5c5ccccc54)cc3)c3c(nc2c1)-c1cc2c(cc1CC3)-c1nc3ccccc3c(-c3ccc(-n4c5ccccc5c5ccccc54)cc3)c1CC2,absorption maximum,in ClC(Cl)Cl,377 nm
COc1ccc(C2=[O+][B-](F)(F)OC(c3ccc4c(c3)Cc3ccccc3-4)=C2)cc1,absorption maximum,in CC#N,424 nm
O=S(=O)(c1ccc(-c2ccc(-n3c4ccccc4c4ccccc43)cc2)cc1)c1ccc(-c2ccc(-n3c4ccccc4c4ccccc43)cc2)cc1,absorption maximum,in Cc1ccccc1,341 nm
CCCC1=C(CCC)c2cccc3c2c(cc2nc4ccccc4nc23)O1,absorption maximum,in ClCCl,499 nm
O=C1C=C(Nc2cccc(F)c2)C(=O)c2ccccc21,absorption maximum,in CCCCCC,440 nm
same,absorption maximum,in CO,459 nm
CC(C)(C)c1cc(-c2cc3c(cc(-c4cc(C(C)(C)C)cc(C(C)(C)C)c4)n3-c3ccc(C(=C(c4ccccc4)c4ccccc4)c4ccccc4)cc3)n2-c2ccc(C(=C(c3ccccc3)c3ccccc3)c3ccccc3)cc2)cc(C(C)(C)C)c1,absorption maximum,in ClCCl,337 nm
Clc1cnc2nn3ccccc3c2c1,absorption maximum,in C1CCOC1,373 nm
CCC(C)(C)c1ccc(-c2ccc3c(c2)C(CCOC)(CCOC)c2cc(C(C)(C)CC)ccc2-3)cc1,absorption maximum,in C1CCCCC1,318 nm
COc1ccc(C2=C(c3ccc(OC)cc3)C(c3ccc(OC)cc3)=[N+]3C2=C(c2ccc(OC)cc2)c2c(-c4ccc(OC)cc4)c(-c4ccc(OC)cc4)c(-c4ccc(OC)cc4)n2[B-]3(F)F)cc1,absorption maximum,in C1CCOC1,597 nm
O=C1c2ccccc2-c2ccc(N3CCN(c4ccccc4)CC3)c3cccc1c23,absorption maximum,in C1CCCCC1,423 nm
same,absorption maximum,in C1CCOC1,438 nm
same,absorption maximum,in C1COCCO1,436.2 nm
same,absorption maximum,in CC1COC(=O)O1,445.6 nm
same,absorption maximum,in CC#N,444 nm
same,absorption maximum,in CC(C)=O,441.2 nm
same,absorption maximum,in CCCCCCCCO,445 nm
same,absorption maximum,in CCCCCO,446 nm
same,absorption maximum,in CCCCO,444 nm
same,absorption maximum,in CCCO,445 nm
same,absorption maximum,in CCO,446.8 nm
same,absorption maximum,in CCOC(C)=O,436 nm
same,absorption maximum,in CN(C)C=O,447.2 nm
same,absorption maximum,in CO,445 nm
same,absorption maximum,in CS(C)=O,452 nm
same,absorption maximum,in Cc1ccccc1,435.8 nm
same,absorption maximum,in ClC(Cl)Cl,443 nm
Cc1cc(-c2nc(-c3ccccc3)nc(-c3ccccc3)n2)cc(C)c1N1c2ccccc2CCc2ccccc21,absorption maximum,in Cc1ccccc1,392.74 nm
CN(C)c1ccc(C2=[N+]3C(=Nc4c(-c5ccc(O)cc5)cc(-c5ccc(N(C)C)cc5)n4[B-]3(F)F)C(c3ccc(O)cc3)=C2)cc1,absorption maximum,in C1CCOC1,775 nm
same,absorption maximum,in CS(C)=O,794 nm
same,absorption maximum,in Cc1ccccc1,778 nm
O=C1c2ccc3c4c(NC5CCCCC5)cc5c6c(ccc(c7c(NC8CCCCC8)cc(c2c37)C(=O)N1C1CCCCC1)c64)C(=O)N(C1CCCCC1)C5=O,absorption maximum,in ClC(Cl)Cl,703 nm
CCN(CC)c1ccc2c(-c3ccccc3C(=O)O)c3c([o+]c2c1)/C(=C/c1nc(C)n2ccccc12)CCC3,absorption maximum,in ClCCl,701 nm
CN(C)c1c2ccccc2cc2ccccc12,absorption maximum,in C1CCCCC1,386 nm
same,absorption maximum,in C1CCOC1,386 nm
same,absorption maximum,in C1COCCO1,387 nm
same,absorption maximum,in CC#N,386 nm
same,absorption maximum,in CCO,385 nm
same,absorption maximum,in CN(C)C=O,388 nm
same,absorption maximum,in CO,384 nm
same,absorption maximum,in COCCOC,386 nm
same,absorption maximum,in CS(C)=O,390 nm
same,absorption maximum,in O,385 nm
same,absorption maximum,in OCC(O)CO,393 nm
same,absorption maximum,in OCCO,388 nm
N#Cc1c(N2CCCC2)cc(-c2ccccc2)c2c1-c1cccc3cccc-2c13,absorption maximum,in O,428 nm
CC(C)(C)OC(=O)NC(Cc1ccccc1)C(=O)OCc1ccc2c3cccc4cccc(c5cccc1c52)c43 (stereo not drawn),absorption maximum,in CCO,440 nm
C(=C\c1c2ccccc2cc2ccccc12)/c1ccc2ccccc2n1,absorption maximum,in CC1CCCCC1,390 nm
same,absorption maximum,in CC#N,390 nm
CC(C)(C)c1ccc2c(c1)c1cc(C(C)(C)C)ccc1n2-c1cc[n+]2c(c1)-c1ccccc1O[B-]2(F)F,absorption maximum,in Cc1ccccc1,375 nm
CCN(CC)c1ccc(-c2nc3c(nc2-c2ccc([B-](F)(c4c(C)cc(C)cc4C)c4c(C)cc(C)cc4C)cc2)c2ccccc2n3C)cc1,absorption maximum,in C1CCOC1,414.75 nm
CCCCn1c(-c2ccc(-c3nnc(-c4ccc5ccccc5c4)o3)cc2)nc2c3ccccc3c3ccccc3c21,absorption maximum,in ClCCl,363 nm
CC(=O)Nc1ccc(C2=N/C(=C\c3ccc(C#N)cc3)C(=O)O2)cc1,absorption maximum,in C1COCCO1,389 nm
CN(C)c1ccc(-c2c(/C=C3/C=Cc4ccccc4N3Cc3ccccc3)c(=O)c2=O)cc1,absorption maximum,in C1CCCCC1,358 nm
same,absorption maximum,in Cc1ccccc1,364 nm
same,absorption maximum,in ClCCl,511 nm
COc1ccc(O)cc1C=O,absorption maximum,in CO,355 nm
same,absorption maximum,in ClC(Cl)Cl,349 nm
